# Measurements published in patent publication US9982019B2, “Glycopeptide compound or pharmaceutical salt thereof and method for preparing same, and pharmaceutical compositions and applications thereof” (priority 2012, dated 2018).
# Where a name gives a salt, the structure may show the parent alone.
# What was measured:
# [1] = tested on: Feces enterococci (VSE clinical isolates: MEFA 0039); assay: In vitro antibacterial activity, agar two times dilution method, MIC; format: cell-based
# Text: (§1) Testing results of in vitro antibacterial activity of some target compounds of the present invention are as follows:
# (§2) Drugs: firstly being dissolved in DMSO, and then being diluted to an appropriate concentration with sterile water, and afterwards successively being diluted for twice.
# (§3) Determination: referencing the standard of CSSI 2008 version, using a agar two times dilution method, determine the minimum inhibitory concentration (MIC values).
# (§4) Feces enterococci (VSE clinical isolates: MEFA 0039); Streptococcus pneumoniae (PISP: ATCC 49619).
# (§5) 3. Positive Control Drug is Vancomycin Hydrochloride.
# [2] = tested on: Streptococcus pneumoniae (PISP: ATCC 49619); assay: as above; format: cell-based
# Text: as §1, §2, §3, §4, §5
smiles,measurement,setting,value
CCCCNCc1c(O)cc2c(c1O)-c1cc(ccc1O)C1NC(=O)C3NC(=O)C(CC(N)=O)NC(=O)C(NC(=O)C(CC(C)C)NC)C(O)c4ccc(c(Cl)c4)Oc4cc3cc(c4OC3OC(CO)C(O)C(O)C3OC3CC(C)(NCc4ccccc4Br)C(O)C(C)O3)Oc3ccc(cc3Cl)C(OC3CC(C)(N)C(O)C(C)O3)C(NC1=O)C(=O)NC2C(=O)O (stereo not shown) [Compound I7],"MIC Values of Compounds, Enterococci","[1]; agar dilution, VSE clinical isolate MEFA 0039",1 µg/mL
same,"MIC Values of Compounds, Streptococcus pneumoniae","[2]; agar dilution, PISP ATCC 49619",0.5 µg/mL
"CN[C@H](CC(C)C)C(=O)N[C@H]1C(=O)N[C@@H](CC(N)=O)C(=O)N[C@H]2C(=O)N[C@H]3C(=O)N[C@H](C(=O)N[C@H](C(=O)O)c4cc(O)cc(O)c4-c4cc3ccc4O)[C@H](O)c3ccc(c(Cl)c3)Oc3cc2cc(c3O[C@@H]2O[C@H](CO)[C@@H](O)[C@H](O)[C@H]2O[C@H]2C[C@](C)(N)[C@H](O)[C@H](C)O2)Oc2ccc(cc2Cl)[C@H]1O [vancomycin hydrochloride, reference compound]",MIC,"[1]; read-out: MIC Values of Compounds, Enterococci",0.25 µg/mL
same,MIC,"[2]; Streptococcus pneumoniae, ATCC49619, read-out: MIC Values of Compounds, Streptococcus pneumoniae",0.125 µg/mL
